Several values for one entry are separate records, joined by “and”; a condition that tells them apart may be missing. Equal values may be shown once.
System: WT ELIC
Experiment: Fluorescence stopped-flow liposomal Tl+ flux assay, symmetric liposomes
Assay type: biochemical, Erwinia chrysanthemi
Set-up: Tl+ flux quenching rate, Avg. / Tl+ flux quenching rate: unit not given here
Conditions: for Avg (stopped-flow fluorescence quenching rate) / Rate (stopped-flow fluorescence quenching rate): WT in PC liposomes; for Avg (stopped-flow fluorescence quenching rate): average of experiments; for Rate (stopped-flow fluorescence quenching rate) / Tl+ flux quenching rate: single experiments
Protocol: The fluorescence sequential-mixing stopped-flow liposomal flux measurements were carried using an SX20 stopped-flow spectrofluorometer (Applied Photophysics) and Pro-Data SX software[13],[30]. 7.5 mg of the respective lipid mixture (POPC, 1:1 POPC: POPE, 1:1 POPC:POPG, 3:1 POPC:POPE, 3:1 POPC:POPG, 2:1:1 POPC:POPE:POPG) was dried in a glass vial to a thin film under a constant stream of N2. The lipids were then further dried under vacuum in a desiccator overnight. The following day the lipids were hydrated in 500 µl of reconstitution buffer (100 mM NaNO3, 10 mM HEPES, pH 7) (Buffer R), 250 µl of 75 mM 8-Aminonaphthalene-1,3,6-Trisulfonic Acid (ANTS, ThermoFisher Scientific) in buffer R, and doped with ~18 mg of CHAPS (Anatrace). The mixture was vortexed and then sonicated with heat until completely solubilized. Following the sonication, the solution was brought to RT then 3.5 µl of 6.7 mg/ml ELIC in Buffer A with 0.02% DDM was added (3 µg per mg of lipid). This combined solution was incubated at RT for 30 min, followed by the addition of 1 ml of 1:1 v/v SM-2 BioBeads in Buffer R and an additional 250 µl of 75 mM ANTS in Buffer R. This mixture was incubated at RT for 2.5 hr with gentle mixing. The liposome suspension was then extruded with an Avanti mini-extruder and 0.1 µm membrane (30×). The extruded liposomes were stored at 13 °C overnight with gentle rotation. The next day, the liposomes were diluted to 2.5 mL using assay buffer (140 mM NaNO3, 10 mM HEPES, pH 7) (Stopped-flow Buffer A), loaded into a PD-10 desalting column (Cytiva), eluted with 3 mL of Stopped-flow Buffer A and subsequently diluted 5-fold with Stopped-flow Buffer A.
Using propylamine as the agonist, the assay and analysis was carried out as previously described[13],[30]. ELIC-containing liposomes were first mixed 1:1 with Buffer A containing 2× the concentration of propylamine. After a variable delay of 10 ms to 25 s, the sample was then mixed 1:1 with a quenching buffer (90 mM NaNO3, 50 mM TlNO3, 10 mM HEPES, pH 7), and ANTS fluorescence (ex. 360 nm, fluorescence above 420 nm) was recorded for 1 s. For each delay time, 5 repeat measurements were obtained. The data were collected using Applied Photophysics Pro-Data SX software. The fluorescence quenching traces were fit to a stretched exponential (Eq. 2a) and the rate of Tl^+ influx was determined at 2 ms (Eq. 2b).2a Ft=F∞+F0−F∞⋅e^−t/τ^β 2b kt=β/τ⋅2ms/τ^(β−1) where Ft, F∞, F0 are the fluorescence at time t, final fluorescence and initial fluorescence. τ is the time constant, β the stretched exponential factor, and kt the calculated rate of Tl^+ influx at 2 ms. The time course of desensitization was also fit to a double exponential and a weighted time constant was calculated as was done for the patch-clamp data using Origin 2019b. All replicates were taken from independent samples.

## CCCN [propylamine]
1 mM PA, delay time 0.1
  Avg (stopped-flow fluorescence quenching rate): 0.1082
1 mM PA, delay time 0.25
  Avg (stopped-flow fluorescence quenching rate): 0.06695
1 mM PA, delay time 0.5
  Avg (stopped-flow fluorescence quenching rate): 0.1937
1 mM PA, delay time 1
  Avg (stopped-flow fluorescence quenching rate): 0.6717
1 mM PA, delay time 2.5
  Avg (stopped-flow fluorescence quenching rate): 0.1973
1 mM PA, delay time 5
  Avg (stopped-flow fluorescence quenching rate): 0.1019
1 mM PA, delay time 10
  Avg (stopped-flow fluorescence quenching rate): 0.1686
3 mM PA, delay time 0
  Avg (stopped-flow fluorescence quenching rate): 0
  Rate (stopped-flow fluorescence quenching rate): 0
3 mM PA, delay time 0.025
  Avg (stopped-flow fluorescence quenching rate): 24.9362
3 mM PA, delay time 0.05
  Avg (stopped-flow fluorescence quenching rate): 279.785
3 mM PA, delay time 0.1
  Avg (stopped-flow fluorescence quenching rate): 279.666
3 mM PA, delay time 0.25
  Avg (stopped-flow fluorescence quenching rate): 300.719
3 mM PA, delay time 0.5
  Avg (stopped-flow fluorescence quenching rate): 352.59
3 mM PA, delay time 1
  Avg (stopped-flow fluorescence quenching rate): 284.973
3 mM PA, delay time 2.5
  Avg (stopped-flow fluorescence quenching rate): 176.344
3 mM PA, delay time 5
  Avg (stopped-flow fluorescence quenching rate): 145.791
3 mM PA, delay time 10
  Avg (stopped-flow fluorescence quenching rate): 107.502
10 mM PA, delay time 0
  Avg (stopped-flow fluorescence quenching rate): 0
  Rate (stopped-flow fluorescence quenching rate): 0
10 mM PA, delay time 0.01
  Avg (stopped-flow fluorescence quenching rate): 3.242
10 mM PA, delay time 0.025
  Avg (stopped-flow fluorescence quenching rate): 7.793
10 mM PA, delay time 0.05
  Avg (stopped-flow fluorescence quenching rate): 10.0904
10 mM PA, delay time 0.05 as printed in r31 (between 0.25 and 1)
  Avg (stopped-flow fluorescence quenching rate): 13.718
10 mM PA, delay time 0.1
  Avg (stopped-flow fluorescence quenching rate): 10.8806
10 mM PA, delay time 0.25
  Avg (stopped-flow fluorescence quenching rate): 11.6946
10 mM PA, delay time 1
  Avg (stopped-flow fluorescence quenching rate): 9.9293
10 mM PA, delay time 2.5
  Avg (stopped-flow fluorescence quenching rate): 4.516
10 mM PA, delay time 5
  Avg (stopped-flow fluorescence quenching rate): 0.8684
10 mM PA, delay time 10, listed as PA
  Rate (stopped-flow fluorescence quenching rate): 0.134 and 0.08335 and 0.06725
30 mM PA, delay time 0
  Avg (stopped-flow fluorescence quenching rate): 0
  Rate (stopped-flow fluorescence quenching rate): 0
30 mM PA, delay time 0.01
  Avg (stopped-flow fluorescence quenching rate): 8.996
30 mM PA, delay time 0.025
  Avg (stopped-flow fluorescence quenching rate): 9.575
30 mM PA, delay time 0.05
  Avg (stopped-flow fluorescence quenching rate): 10.6204
30 mM PA, delay time 0.1
  Avg (stopped-flow fluorescence quenching rate): 12.7838
30 mM PA, delay time 0.25
  Avg (stopped-flow fluorescence quenching rate): 12.1642
30 mM PA, delay time 0.5
  Avg (stopped-flow fluorescence quenching rate): 10.2984
30 mM PA, delay time 1
  Avg (stopped-flow fluorescence quenching rate): 6.967
30 mM PA, delay time 2.5
  Avg (stopped-flow fluorescence quenching rate): 2.226
30 mM PA, delay time 5
  Avg (stopped-flow fluorescence quenching rate): 0.2318
30 mM PA, delay time 25, listed as PA
  Rate (stopped-flow fluorescence quenching rate): 0.1998 and 0.3265
WT 1:1 PC:PE 10 mM PA, delay 0.1 s, listed as PA
  Tl+ flux quenching rate: 18.5265 and 20.1957 and 27.1402
WT 1:1 PC:PE 10 mM PA, delay 0.25 s, listed as PA
  Tl+ flux quenching rate: 14.1307 and 20.5822 and 22.3191
WT 1:1 PC:PE 10 mM PA, delay 5 s, listed as PA
  Tl+ flux quenching rate: 8.309 and 12.2434 and 8.587
WT 3:1 PC:PE 10 mM PA, delay 0.05 s, listed as PA
  Tl+ flux quenching rate: 17.3372 and 23.7705 and 12.3709
WT 3:1 PC:PE 10 mM PA, delay 0.1 s, listed as PA
  Tl+ flux quenching rate: 25.2651 and 29.8644 and 21.5739
WT 3:1 PC:PE 10 mM PA, delay 0.5 s, listed as PA
  Tl+ flux quenching rate: 30.0354 and 34.8933 and 24.5328
WT 3:1 PC:PG 10 mM PA, delay 1 s, listed as PA
  Tl+ flux quenching rate: 9.374 and 10.6202 and 12.8093
WT 3:1 PC:PG 10 mM PA, delay 2.5 s, listed as PA
  Tl+ flux quenching rate: 7.906 and 8.478 and 12.3833
WT 3:1 PC:PG 10 mM PA, delay 5 s, listed as PA
  Tl+ flux quenching rate: 5.2352 and 10.1414 and 9.072
WT PC 10 mM PA, delay 10 s, listed as PA
  Tl+ flux quenching rate: 0.134 and 0.08335 and 0.06725
